The results in this text go back to ChEMBL document CHEMBL3091405, “Novel glycosylated endomorphin-2 analog produces potent centrally-mediated antinociception in mice after peripheral administration” (Bioorg Med Chem Lett, 2013).

Active and inactive are the calls of the source. No cut-off for these calls is given here. Residues, ends and D or L forms follow the SMILES beside them. *: point of attachment. X1 = CC(=O)OC[C@H]1O[C@@H](*)[C@H](OC(C)=O)[C@@H](OC(C)=O)[C@@H]1OC(C)=O; βGlc = OC[C@H]1O[C@@H](*)[C@H](O)[C@@H](O)[C@@H]1O

In data set [1] the target is Mu-type opioid receptor (Cavia porcellus, UniProt P97266). The experiment in a line: Agonist activity at mu opioid receptor in guinea pig ileum. It is filed as tissue-based.
The target of data set [2] is Mu-type opioid receptor (Rattus norvegicus, UniProt P33535). The experiment in a line: Displacement of [3H]DAMGO from Wistar rat brain mu opioid receptor by liquid scintillation counting analysis. For orientation: Loss of bound radioactivity is the signal in a displacement assay; it reports binding, not function.
Data set [3] concerns Mus musculus. In words: Antinociceptive activity in mouse assessed as prolongation time to jump at 3 mg/kg, iv by hot plate test. The class given is functional, organism-based. On the set-up: dose 3 mg/kg. Background: Hot-plate and tail-flick tests time the reaction to a heat stimulus.
The subject of data set [4] is Plasma. The experiment in a line: Drug metabolism in mouse plasma assessed as glucuronic metabolite formation at 3 mg/kg, iv after 10 mins by mass spectrometric analysis. The class given is ADME, organism-based. Also noted: dose 3 mg/kg, route intravenous. Particulars: in vivo.
The test system of data set [5] is Plasma. The experiment in a line: Drug metabolism in mouse plasma assessed as degycosylated metabolite formation at 3 mg/kg, iv after 10 mins by mass spectrometric analysis. Also noted: dose 3 mg/kg, route intravenous. The class given is ADME, organism-based. Particulars: in vivo.
The test system of data set [6] is Mus musculus. In words: Antinociceptive activity in mouse assessed as prolongation time to jump at 3 mg/kg, iv by hot plate test in presence of opioid receptor antagonist NALME. It is filed as functional, organism-based. Also noted: dose 3 mg/kg.

Chain of Mu-type opioid receptor (Rattus norvegicus, UniProt P33535) (P33535 whole entry): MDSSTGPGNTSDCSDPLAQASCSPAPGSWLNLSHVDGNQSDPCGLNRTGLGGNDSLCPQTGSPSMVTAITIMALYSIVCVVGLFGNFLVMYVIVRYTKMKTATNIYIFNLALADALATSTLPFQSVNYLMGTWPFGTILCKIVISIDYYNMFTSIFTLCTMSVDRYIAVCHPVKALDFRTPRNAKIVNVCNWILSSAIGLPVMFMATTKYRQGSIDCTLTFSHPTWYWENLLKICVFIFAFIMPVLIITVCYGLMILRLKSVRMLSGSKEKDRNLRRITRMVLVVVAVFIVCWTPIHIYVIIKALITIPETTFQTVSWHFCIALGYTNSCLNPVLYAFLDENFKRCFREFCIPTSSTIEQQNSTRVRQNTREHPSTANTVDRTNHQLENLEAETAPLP
Chain of Mu-type opioid receptor (Cavia porcellus, UniProt P97266) (P97266 whole entry): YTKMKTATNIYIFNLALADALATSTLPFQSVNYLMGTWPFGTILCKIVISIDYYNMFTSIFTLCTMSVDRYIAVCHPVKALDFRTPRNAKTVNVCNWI

By IC50 is commonly meant the point on the concentration scale where inhibition reaches its midpoint. The low end stands for inhibition by little substance, the high end for a need for much substance. `CC(=O)OC[C@H]1O[C@@H](Oc2ccc(C[C@H](NC(=O)[C@@H]3CCCN3C(=O)[C@@H](N)Cc3ccc(O)cc3)C(=O)N[C@@H](Cc3ccccc3)C(N)=O)cc2)[C@H](OC(C)=O)[C@@H](OC(C)=O)[C@@H]1OC(C)=O` (H-YPY(X1)F-NH2): the IC50 at Mu-type opioid receptor [1] and at Mu-type opioid receptor [2] was above 1000 nM throughout.

As for `NC(=O)[C@H](Cc1ccccc1)NC(=O)[C@H](Cc1ccccc1)NC(=O)[C@@H]1CCCN1C(=O)[C@@H](N)Cc1ccc(O)cc1`, the result in the data set on Mus musculus [3] was inactive.

On to `NC(=O)[C@H](Cc1ccccc1)NC(=O)[C@H](Cc1ccc(O[C@@H]2O[C@H](CO)[C@@H](O)[C@H](O)[C@H]2O)cc1)NC(=O)[C@@H]1CCCN1C(=O)[C@@H](N)Cc1ccc(O)cc1` (H-YPY(βGlc)F-NH2), for which the Drug metabolism entry in the data set on Plasma [4] and in the data set on Plasma [5] was “Active” in each case. The outcome in the data set on Mus musculus [3] and in the data set on Mus musculus [6] was Active. Besides, the IC50 on Mu-type opioid receptor [1] came out at 16.1 nM; on Mu-type opioid receptor [2], 73.2 nM.
